Reference: ChEMBL document CHEMBL3286191, “Exploring structural motifs necessary for substrate binding in the active site of Escherichia coli pantothenate kinase” (Bioorg Med Chem, 2014)
Active and inactive are the calls of the source. The calls are words filed in the database; no cut-off is given here.

What was measured:
Escherichia coli [1] = experiment: Activity of purified Escherichia coli pantothenate kinase by spectrophotometry
Escherichia coli [2] = experiment: Ratio of kcat to Km for purified Escherichia coli pantothenate kinase by spectrophotometry
Escherichia coli [3] = experiment: Activity of purified Escherichia coli pantothenate kinase up to 1 uM by spectrophotometry
Escherichia coli [4] = experiment: Inhibition of purified Escherichia coli pantothenate kinase using pantothenate as substrate at 0.625 to 20 mM by spectrophotometry

Compound	Km (Escherichia coli [1]) [µM]	kcat (Escherichia coli [1]) [s⁻¹]	kcat/Km (Escherichia coli [2]) [M⁻¹ s⁻¹]	Activity (Escherichia coli [3])	inhibition (Escherichia coli [4])
CCCCCNC(CNC(=O)[C@H](O)C(C)(C)CO)C(=O)O (some centres not stated)	700	0.23	300		
CC(C)(CO)[C@@H](O)C(=O)NCCC(=O)NCCc1ccccn1	110	1.15	11000		
CC(C)(CO)[C@@H](O)C(=O)NCCC(=O)Nc1cc(Cl)ccc1Oc1ccc(Cl)cc1Cl				inactive	inactive
CCCCCNC(=O)CCNC(=O)[C@H](O)[C@](C)(CC)CO	230	1.17	5100		
CC(C)(CO)[C@@H](O)C(=O)NCCCOc1cc(Cl)ccc1Oc1ccc(Cl)cc1Cl				inactive	inactive
CC(C)(CO)[C@@H](O)C(=O)NCCC(=O)NCc1ccncc1	130	0.94	7000		
CCCc1cn(CCCNC(=O)[C@H](O)C(C)(C)CO)nn1	1000	0.49	500		
CC(C)(CO)[C@@H](O)C(=O)NCCNC(=N)N				inactive	inactive
CC(C)(CO)[C@@H](O)C(=O)NCCC(=O)Nc1ccccc1	43	1.02	24000		
CC(C)(CO)[C@@H](O)C(=O)NCCC(=O)NCC1CCNCC1	> 1000	1.19	500		
CCCCCNC(=O)CNC(=O)CCNC(=O)[C@H](O)C(C)(C)CO	120	1.12	10000		
CCCCCNC(=O)CCNC(=O)[C@H](O)C(C)(C)CO	36	0.93	26000		
CC(C)(CO)[C@@H](O)C(=O)NCCC(=O)N1Cc2ccccc2C1	200	0.45	1900		
CC(C)(CO)[C@@H](O)C(=O)NCCC(=O)Nc1ccncn1	450	1.44	3200		
CN(C)CCCNC(=O)CCNC(=O)[C@H](O)C(C)(C)CO				inactive	inactive
CC(C)(CO)[C@@H](O)C(=O)NCCC(=O)N1CCc2ccccc21	400	0.18	400		
CCCCCNC(=O)CCNC(=O)[C@H](O)[C@@](C)(CO)CCCO				inactive	inactive
Cc1cccnc1NC(=O)CCNC(=O)[C@H](O)C(C)(C)CO	39	0.78	20000		
CC(C)(CO)[C@@H](O)C(=O)NCCCNC(=N)Nc1ccc(Cl)cc1				inactive	inactive

Compound	Km (Escherichia coli [1]) [µM]	kcat (Escherichia coli [1]) [s⁻¹]	kcat/Km (Escherichia coli [2]) [M⁻¹ s⁻¹]	Activity (Escherichia coli [3])	inhibition (Escherichia coli [4])
CCCC(=O)NCCNC(=O)CCNC(=O)[C@H](O)C(C)(C)CO	240	1.09	4500		
CCCCCNC(=O)CCNC(=O)[C@H](O)C(CC)(CC)CO	1200	0.28	200		
CC(C)(CO)[C@@H](O)C(=O)NCCC(=O)NCCCN1CCOCC1	350	1.03	2900		
CC(C)(CO)[C@@H](O)C(=O)NCCC(=O)NCc1cccnc1	33	1.24	38000		
CC(C)(CO)[C@@H](O)C(=O)NCCC(=O)NCCCn1ccnc1	22	0.46	21000		
C#CC[C@](C)(CO)[C@@H](O)C(=O)NCCC(=O)NCCCCC	110	1.04	9000		
CN(C)CCCNCCCNC(=O)CCNC(=O)[C@H](O)C(C)(C)CO				inactive	inactive
CC(C)(CO)[C@@H](O)C(=O)NCCC(=O)NCc1ccccc1	67	1.15	17000		
CC(C)(CO)[C@@H](O)C(=O)NCCC(=O)NCCN1CCNCC1	> 1000	0.75	300		
CC(C)(CO)[C@@H](O)C(=O)NCCC(=O)NCCS	60	1.03	17000		
C=CC[C@](C)(CO)[C@@H](O)C(=O)NCCC(=O)NCCCCC	590	0.89	1500		
CCCCCn1cc(CNC(=O)[C@H](O)C(C)(C)CO)nn1	190	0.96	5100		
CC(C)(CO)[C@@H](O)C(=O)NCCS(=O)(=O)O				inactive	inactive
CCCCCNC(=O)CNCCCNC(=O)[C@H](O)C(C)(C)CO	1200	0.13	100		
CC(C)(CO)[C@@H](O)C(=O)NCCC(=O)NCc1ccccn1	50	1.02	20000		
CC(C)(CO)[C@@H](O)C(=O)NCCC(=O)O	21	1.07	50000		
CC(C)(CO)[C@@H](O)C(=O)NCCC(=O)NCCCc1ccccc1	32	1.13	35000		
C=CCC[C@](C)(CO)[C@@H](O)C(=O)NCCC(=O)NCCCCC				inactive	inactive
